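Cells were grown in 96-well plates and exposed to each compound for 48 hours at five concentrations; endpoints were interpolated linearly between bracketing concentrations, or set to the highest concentration if not reached. The concentration for 50% growth inhibition is given as GI50. TGI: concentration producing complete growth inhibition.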
What was measured:
Assay in all cases: growth of human tumour cells (NCI), 48 h
[1] = system: A549 NSCLC
[2] = system: M14 melanoma
[3] = system: SF-539 CNS
[4] = system: NCI-H522 lung
[5] = system: HS 578T breast
[6] = system: SNB-19 CNS
[7] = system: HOP-92 NSCLC
[8] = system: SK-MEL-28 melanoma
[9] = system: T-47D breast
[10] = system: HCT-15 colon
[11] = system: DU-145 prostate
[12] = system: LOX IMVI melanoma
[13] = system: UACC-62 melanoma
[14] = system: RXF 393 renal
[15] = system: SW-620 colon
[16] = system: SK-MEL-2 melanoma
[17] = system: OVCAR-5 ovarian
[18] = system: HL-60(TB) leukemia
[19] = system: SF-268 CNS
[20] = system: PC-3 prostate
[21] = system: ACHN renal
[22] = system: SF-295 CNS
[23] = system: HCC-2998 colon
[24] = system: HOP-62 NSCLC
[25] = system: HT29 colon
[26] = system: IGROV1 ovarian

Structure (SMILES): Nc1nc(N)c2c(n1)NC(c1ccc(Cl)cc1)CC(c1ccc(Nc3nc(NCCO)nc(Nc4ccc(Cl)cc4)n3)cc1)=N2 (stereo unspecified)
- TGI [1]: > 100000 nM
- GI50 [2]: 1900 nM
- TGI [2]: 4390 nM
- GI50 [3]: 1680 nM
- TGI [3]: 3320 nM
- GI50 [4]: 1560 nM
- TGI [4]: 3160 nM
- GI50 [5]: 2220 nM
- TGI [5]: 5010 nM
- GI50 [6]: 1990 nM
- TGI [6]: 5810 nM
- GI50 [7]: 1290 nM
- TGI [7]: 3120 nM
- GI50 [8]: 1730 nM
- TGI [8]: 3110 nM
- GI50 [9]: 1710 nM
- TGI [9]: 6510 nM
- GI50 [10]: 1290 nM
- TGI [10]: 2800 nM
- GI50 [11]: 2220 nM
- TGI [11]: 5810 nM
- GI50 [12]: 1450 nM
- TGI [12]: 2860 nM
- GI50 [13]: 2030 nM
- TGI [13]: 4280 nM
- GI50 [14]: 1540 nM
- TGI [14]: 2970 nM
- GI50 [15]: 1620 nM
- TGI [15]: 3300 nM
- GI50 [16]: 1450 nM
- TGI [16]: 2830 nM
- GI50 [17]: 4480 nM
- TGI [17]: 19800 nM
- GI50 [18]: 1150 nM
- TGI [18]: 3940 nM
- GI50 [19]: 4140 nM
- TGI [19]: 26100 nM
- GI50 [20]: 1930 nM
- TGI [20]: 7550 nM
- GI50 [21]: 4690 nM
- TGI [21]: > 100000 nM
- GI50 [22]: 1730 nM
- TGI [22]: 3670 nM
- GI50 [23]: 1440 nM
- TGI [23]: 2780 nM
- GI50 [24]: 2830 nM
- TGI [24]: 10900 nM
- GI50 [25]: 1700 nM
- TGI [25]: 3680 nM
- GI50 [26]: 1710 nM
- TGI [26]: 3580 nM
